{"source": "patent US20250101108A1", "about": "“METHODS TO ENHANCE THERAPEUTIC EFFICACY IN MELANOMA VIA MODULATION OF CELL SURFACE PD-L1/L2” (THE REGENTS OF THE UNIVERSITY OF CALIFORNIA, priority 2021, published 2025)", "key": {"ITCH": {"target": "ITCH (Homo sapiens, UniProt Q96J02)", "sequence (Q96J02 whole entry, species assumed)": "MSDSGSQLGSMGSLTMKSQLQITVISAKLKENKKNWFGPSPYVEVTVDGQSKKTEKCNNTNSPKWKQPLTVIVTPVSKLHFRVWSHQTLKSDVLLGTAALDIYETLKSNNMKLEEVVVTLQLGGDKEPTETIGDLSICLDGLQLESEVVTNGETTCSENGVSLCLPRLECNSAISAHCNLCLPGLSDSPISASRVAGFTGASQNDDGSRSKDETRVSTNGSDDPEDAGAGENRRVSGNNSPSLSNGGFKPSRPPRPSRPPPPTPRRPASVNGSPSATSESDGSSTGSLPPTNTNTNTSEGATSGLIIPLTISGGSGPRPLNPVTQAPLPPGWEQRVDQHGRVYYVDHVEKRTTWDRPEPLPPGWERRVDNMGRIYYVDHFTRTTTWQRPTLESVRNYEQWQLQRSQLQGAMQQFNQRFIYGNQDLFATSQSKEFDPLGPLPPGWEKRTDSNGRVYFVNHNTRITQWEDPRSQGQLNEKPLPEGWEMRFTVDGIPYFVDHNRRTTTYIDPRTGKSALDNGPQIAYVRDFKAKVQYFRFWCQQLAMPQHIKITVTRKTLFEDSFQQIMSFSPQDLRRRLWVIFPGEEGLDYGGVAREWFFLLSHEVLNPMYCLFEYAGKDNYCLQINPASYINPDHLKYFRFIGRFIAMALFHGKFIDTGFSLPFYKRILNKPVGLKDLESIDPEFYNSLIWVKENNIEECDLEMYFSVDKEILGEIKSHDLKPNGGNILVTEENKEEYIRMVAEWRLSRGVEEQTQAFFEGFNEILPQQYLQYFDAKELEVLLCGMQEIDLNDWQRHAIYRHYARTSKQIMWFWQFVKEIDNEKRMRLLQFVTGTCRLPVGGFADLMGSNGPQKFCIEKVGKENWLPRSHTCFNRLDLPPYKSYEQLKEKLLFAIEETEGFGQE", "conditions": "cited from earlier work"}, "[1]": {"test_system": "tumor cell-surface PD-L1/L2", "assay": "Cell-surface PD-L1 and PD-L2 detection by cell-surface staining and FACS analysis in cultured cell lines", "format": "cell-based, human", "experimental": "(§1) (6A) Structure and chemical name of AK087. (6B) M238R1 cells with ITCH-FLAG over-expression were treated with 0, 40, or 80 μM of AK087 for 6 days and then treated with MG-132 (20 μM) for 4 hours followed by anti-PD-L1 or anti-FLAG IP and Western blot (WB) detection of UB. (6C) 293T cells co-transfected with PD-L1-FLAG and ITCH-HA were treated with 0, 40, or 80 μM of AK087 for 6 days and then treated with MG-132 (20 μM) for 4 hours followed by anti-HA or anti-FLAG IP and WB detection of UB. (6D) M238R1 cell-surface levels of PD-L1 (left) and PD-L2 (right) as measured by cell-surface staining and FACS analysis after 0, 20, 40, 80 μM AK087 treatment for 6 days. Mean±SEMs (n=3). […]\n(§2) FIGS. 9A-9N show physical and functional interactions between ITCH and PD-L1/L2. (9A) Cell-surface levels of PD-L2 in M238R1 (left) and MDA-MB-231 (right) cells stably expressing control shRNA (shCtr) or ITCH-targeting shRNAs (shiICH-1, shiICH-2), as measured by cell-surface staining and FACS analysis (PD-L2 is not detectable in H358 cells). MFI, mean fluorescence intensity. […] (9B) Cell-surface levels of PD-L2 in M238 R1 cells stably expressing empty vector (Vec) or over-expression (OE) ITCH, as measured by cell-surface staining and FACS analysis. […] (9C) Cell-surface levels of PD-L1 in M238R1, H358, and MDA-MB-231 stably expressing control shRNA (shCtr) or ITCH-targeting shRNAs (shiICH-1, shiICH-2) and M238R1 stably expressing empty vector (Vec) or OE ITCH, as measured by immunofluorescence staining. […] (9D) PD-L1 internalization in M238 R1 cells stably expressing empty vector (Vec) or OE ITCH, as measured by FACS analysis. […]"}, "total PD-L1": {"test_system": "total PD-L1", "assay": "Western blots of total PD-L1 protein levels in cultured cell lines", "format": "cell-based, human", "conditions": "for total PD-L1 protein level: 20, 40, 80 μM for 6 days", "experimental": "as §1, §2"}, "UBCH7 and ITCH [2]": {"target": "T1, UBCH7 and ITCH (Homo sapiens, UniProt Q96J02)", "T1 sequence (Q96J02 whole entry)": "as the sequence (Q96J02 whole entry, species assumed) above", "T1 sequence (P68036 whole entry partner)": "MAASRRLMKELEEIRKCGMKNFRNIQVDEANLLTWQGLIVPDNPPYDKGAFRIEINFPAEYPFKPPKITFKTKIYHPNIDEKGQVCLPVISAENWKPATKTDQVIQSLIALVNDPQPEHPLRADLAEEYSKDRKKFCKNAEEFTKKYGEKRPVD", "assay": "UBCH7-ITCH interaction, proximity ligation assay (PLA) in cancer cell lines", "format": "cell-based", "conditions": "M229R5, H358, M238R1 and M238, 100 μM for 2 days", "experimental": "Right panel: M229R5, H358, M238R1 and M238 cells were treated with DMSO or AK087 (100 μM) for 2 days followed by proximity ligation assay (PLA) using anti-UBCH7 and anti-ITCH antibodies. Signal dots per cell was quantified by the Duolink ImageTool. For bar graph: n=2-3. Means±SEM. *p<0.05, **p<0.01, student's t test.\nFor bar graph: n=2-3. Means #SEM. *p<0.05, **p<0.01, student's t test."}, "endogenous PD-L1": {"test_system": "endogenous PD-L1", "assay": "Ubiquitination assay (anti-PD-L1 IP and WB detection of UB) in M238 R1 cells", "format": "cell-based, human", "conditions": "0, 40, 80 μM for 6 days, then MG-132 20 μM 4 hours", "experimental": "as §1"}, "YUMM1.7ER": {"test_system": "YUMM1.7ER", "assay": "Response of YUMM1.7ER melanoma to immune checkpoint blockade", "format": "in vivo, murine", "conditions": "AK087 10 mg/kg/day subcutaneously with anti-PD-1, anti-CTLA-4", "experimental": "(§3) Data are derived from two murine models of melanoma, YUMM1.ER, Braf^V600MUT melanoma, and NILER1-4, […] melanoma. (15A) YUMM1.7ER. n=9-10 per group. Means±SEM. Anti-PD-1 200 μg/mouse, anti-CTLA-4 200 μg/mouse three times a week for the first two weeks, then change to twice/week treatment. AK087 10 mg/kg/day (Subcutaneously, daily) administration. *p<0.05, student's t test. (15B) NILER1-4. n=8-10 per group. Means±SEM. Anti-PD-1 200 μg/mouse, anti-CTLA-4 200 g/mouse, aLAG-3 200 μg/mouse three times a week for the first two weeks, then change to twice/week treatment. AK087 15 mg/kg/day (Subcutaneously, daily) administration. *p<0.05, student's t test.\nas §3, with “melanoma. […]” for “melanoma. (15A) YUMM1.7ER. n=9-10 per group.”, “then changed” for “then change”, “test. […]” for “test. (15B) NILER1-4. n=8-10 per group.”, “200 μg/mouse,” for “200 g/mouse,”"}, "ITCH-FLAG": {"target": "T2, ITCH-FLAG (Homo sapiens, UniProt Q96J02)", "T2 construct": "expressed in transfected cells", "T2 sequence (Q96J02 whole entry)": "as the sequence (Q96J02 whole entry, species assumed) above", "assay": "Ubiquitination assay (IP and WB detection of UB) in M238 R1 cells expressing ITCH-FLAG", "format": "cell-based", "conditions": "0, 40, 80 μM for 6 days, then MG-132 20 μM 4 hours", "experimental": "as §1"}, "UBCH7 and ITCH [3]": {"target": "T1, UBCH7 and ITCH", "assay": "UBCH7-ITCH interaction, anti-FLAG immunoprecipitation and WB in HEK293T cells", "format": "cell-based", "design": "expressed in transfected cells; host or cells: HEK293T", "conditions": "HA-UBCH7 and ITCH-FLAG, 100 μM for 24 or 36 hours"}, "[4]": {"test_system": "YUMM1.7ER melanoma tumors", "assay": "Subcutaneous syngeneic YUMM1.7ER tumors on trametinib, acquired MAPKi-resistance", "format": "in vivo"}, "NILER1-4": {"test_system": "NILER1-4", "assay": "Response of NILER1-4 melanoma to immune checkpoint blockade", "format": "in vivo, murine", "conditions": "AK087 15 mg/kg/day subcutaneously with anti-PD-1, anti-CTLA-4, aLAG-3", "experimental": "as §3\nas §3, with “melanoma. […]” for “melanoma. (15A) YUMM1.7ER. n=9-10 per group.”, “then changed” for “then change”, “test. […]” for “test. (15B) NILER1-4. n=8-10 per group.”, “200 μg/mouse,” for “200 g/mouse,”"}, "[5]": {"conditions": "M238 R1 Vec or OE ITCH, 16 hours"}, "[6]": {"conditions": "AK087 10 mg/kg/day for 17 days, co-treatment with trametinib"}}, "note": "Read-outs that look alike come from different tables or passages of the source.", "data": [{"compound": "Cc1ccc(N2C(=O)C(Cl)=C(N3CCCCC3)C2=O)cc1", "note": "[RL 2, 3-chloro-1-(4-methylphenyl)-4-piperidin-1-yl-1H-pyrrole-2,5-dione]", "values": [{"measurement": "Activity (%)", "setting": "ITCH; Screening concentration 10 uM", "value": 141, "unit": "%"}]}, {"compound": "Cc1ccc(S(=O)(=O)c2cc3ccc(C)n3cn2)cc1", "note": "[RL 4, 4-methylphenyl 7-methylpyrrolo[1,2-c]pyrimidin-3-yl sulfone]", "values": [{"measurement": "Activity (%)", "setting": "ITCH; Screening concentration 10 uM", "value": 145, "unit": "%"}]}, {"compound": "CCN(CC)CCCC(C)Nc1ccnc2cc(Cl)ccc12", "note": "(stereo not shown) [chloroquine, reference compound]", "values": [{"measurement": "down-regulation of cell-surface PD-L1 levels elicited by ITCH over-expression", "setting": "[1]; [5]", "value": "rescued down-regulation"}, {"measurement": "down-regulation of total PD-L1 levels elicited by ITCH over-expression", "setting": "total PD-L1; [5]", "value": "rescued down-regulation"}]}, {"compound": "Cc1[nH]nc2c1C(c1ccccc1OC(C)C)C(C#N)=C(N)O2", "note": "(stereo not shown) [RL 6, 6-amino-3-methyl-4-{2-[(1-methylethyl)oxy]phenyl}-2,4-dihydropyrano[2,3-c]pyrazole-5-carbonitrile]", "values": [{"measurement": "Activity (%)", "setting": "ITCH; Screening concentration 10 uM", "value": 194, "unit": "%"}]}, {"compound": "Cc1ccc(NS(=O)(=O)c2ccccc2)cc1C", "note": "[RL 3, N-(3,4-dimethylphenyl)benzenesulfonamide]", "values": [{"measurement": "Activity (%)", "setting": "ITCH; Screening concentration 10 uM", "value": 140, "unit": "%"}]}, {"compound": "COc1cc2oc(=O)cc(C)c2c(OC)c1OC", "note": "[RL 5, 5,6,7-trimethoxy-4-methyl-2H-chromen-2-one]", "values": [{"measurement": "tumor cell-surface PD-L1", "setting": "[1]; H358, 0, 20, 40, 80 μM for 6 days", "value": "dose-dependently reduced"}, {"measurement": "tumor cell-surface PD-L1/L2", "setting": "[1]; M238 R1, 0, 20, 40, 80 μM for 6 days", "value": "dose-dependently reduced"}, {"measurement": "interaction between UBCH7 and ITCH", "setting": "UBCH7 and ITCH [2]", "value": "enhances the interaction"}, {"measurement": "poly-ubiquitination of endogenous PD-L1", "setting": "endogenous PD-L1", "value": "enhancing the poly-ubiquitination"}, {"measurement": "Activity (%)", "setting": "ITCH; Screening concentration 10 uM", "value": 140, "unit": "%"}, {"measurement": "enhancement of auto-ubiquitination of ITCH", "setting": "ITCH; reconstituted recombinant proteins, small molecule screen (ref. 25)", "value": 140, "unit": "%"}, {"measurement": "response to immune checkpoint blockade", "setting": "YUMM1.7ER", "value": "improves responses"}, {"measurement": "poly/auto-ubiquitination of ITCH-FLAG", "setting": "ITCH-FLAG", "value": "dose-dependently enhanced"}, {"measurement": "interaction between UBCH7 and ITCH", "setting": "UBCH7 and ITCH [3]", "value": "enhances the interaction"}, {"measurement": "body weight loss / toxicities", "setting": "[4]; [6]", "value": "no appreciable body weight loss or superficial evidence of toxicities"}, {"measurement": "complete responses", "setting": "[4]; [6]", "value": "5 of 9"}, {"measurement": "acquired MAPKi-resistance", "setting": "[4]; AK087 10 mg/kg/day subcutaneously for 17 days, co-treatment with trametinib 0.45 mg/kg/d", "value": "suppressed acquired MAPKi-resistance"}, {"measurement": "total PD-L1 protein level", "setting": "total PD-L1; H358", "value": "dose-dependently reduced"}, {"measurement": "total PD-L1 protein level", "setting": "total PD-L1; M238 R1", "value": "dose-dependently reduced"}, {"measurement": "response to immune checkpoint blockade", "setting": "NILER1-4", "value": "improves responses"}]}, {"compound": "CHLORO- PHYLLIDE Cu COMPLEX Na SALT [RL 1]", "values": [{"measurement": "Activity (%)", "setting": "ITCH; Screening concentration 20 uM", "value": 147, "unit": "%"}]}]}
